“Also recorded” adds a separate entry of the source. Read-outs that look alike come from different tables or passages of the source.
Legend:
[1] = molecular target: T1, native NS4A-NS3 full length protein (Hepatitis C virus genotype 1b, UniProt P26662); test: 3D-Screen NS4A-NS3 full length mutant profiling platform, Huh7 cells, 3D-sensor VF-9A11, native; format: cell-based, HCV genotype 1b; design: the GSGS linker and the NS3 protease (residues 3-631); expressed in transfected cells; host or cells: Huh7 hepatoma cells
Experimental: (§1) Hela cells (ATCC, Molsheim, France) were maintained in EMEM (Minimum Essential Medium Eagle with Earle's Balanced Salt solution without L-Glutamine; Biowhittaker/Cambrex, East Rutherford, N.J., USA) supplemented with 10% FBS (JRH), 2 mM Glutamine (Biowhittaker/Cambrex), 1% Non-essential Amino acids (Biowhittaker/Cambrex), 100 units/ml Penicillin and 100 ug/ml Streptomycin. Cells were kept in a humidified 5% CO2 atmosphere at 37° C. and dissociated using Trypsine-EDTA (1×) when reaching 80-90% confluence. Huh-7 hepatoma derived cells (Nakabayashi H et al, 1982) were maintained in half volume of DMEM (Dulbecco's […] Medium without L-Glutamine; Lonza, Basel, Switzerland) and half volume of Ham's F12 medium (Lonza, Basel, Switzerland) supplemented with 10% FBS (SAFC, USA), 1 mM Glutamine (Lonza, Basel, Switzerland), 0.5 mM Sodium pyruvate (Lonza, Basel, Switzerland), 100 units/ml Penicillin and 100 ug/ml Streptomycin. Cells were kept in a humidified 5% CO2 atmosphere at 37° C. and dissociated using Trypsine-EDTA (1×) when reaching 80-90% confluence. […]
(§2) Cell culture supernatant was discarded and 100 ul of Lysis buffer were added to each well. […] Chemi-luminescence measurement was performed immediately using a Microlumat LB96 luminometer (Berthold, Thoiry, France) with 1 or 10 sec integration time.

[2] = molecular target: T1, native NS4A-NS3 full length protein; test: 3D-Screen NS4A-NS3 full length platform, luciferase reporter, Hela cells, native; format: cell-based, HCV genotype 1b; design: the GSGS linker and the NS3 protease (residues 3-631); expressed in transfected cells; settings: HeLa; 2 uM final concentration, 3D-sensor H5-34
Experimental: (§3) Cell culture supernatant was discarded and 100 ul of Lysis buffer were added to each well. Following 10 nm of vigorous shaking, the lysate was transferred to white opaque 96 well-plates and 100 ul of Luciferin buffer were added. Chemi-luminescence measurement was performed immediately using a Microlumat LB96 luminometer (Berthold, Thoiry, France) with 1 or 10 sec integration time.

native NS4A-NS3 protease = molecular target: T2, native NS4A-NS3 protease (Hepatitis C virus genotype 1b, UniProt P26662, I1158V/V1140I); test: 3D-Screen NS4A-NS3 protease platform, luciferase reporter, Hela cells, native; format: cell-based, HCV genotype 1b; settings: HeLa; 2 uM final concentration, 3D-sensor V7-62
T2 construct: the NS3 protease (residues 3-181); expressed in transfected cells; host or cells: Hela cells
Experimental: as §3
3D-sensors confirmed in yeast were further investigated in Hela cells.

protease = settings: described in Lamarre et al, 2003; cited from earlier work
[3] = molecular target: T3, NS4A-NS3 full length protein A156V (Hepatitis C virus genotype 1b, UniProt P26662, A1182V); test: 3D-Screen NS4A-NS3 full length mutant profiling platform, Huh7 cells, A156V; format: cell-based, HCV genotype 1b
T3 construct: the GSGS linker and the NS3 protease (residues 3-631); expressed in transfected cells; host or cells: Huh7 hepatoma cells
Experimental: as §1, §2

[4] = molecular target: T4, NS4A-NS3 full length protein D168V (Hepatitis C virus genotype 1b, UniProt P26662, D1194V); test: 3D-Screen NS4A-NS3 full length mutant profiling platform, Huh7 cells, D168V; format: cell-based, HCV genotype 1b
T4 construct: the GSGS linker and the NS3 protease (residues 3-631); expressed in transfected cells; host or cells: Huh7 hepatoma cells
Experimental: as §1, §2

ER = test: Yeast two-hybrid spot test, control clone ER + 3D-sensor No 30-2; format: cell-based
Excerpt: (a) Isolation of peptides interacting with the NS5BΔ21 in the yeast two-hybrid-system. Yeast cells carrying the bait (NS5BΔ21-LexA) were transformed with the prey represented by a library of random peptides (in frame with the viral VP16 activation domain). Colonies growing on selective medium and staining blue allowed the isolation of individual peptides that would specifically interact with the polymerase. (b) Isolation of conformation sensitive peptides. The interacting peptides were then tested in presence of ligands known to induce conformational changes in the bait NS5B. The “3D-sensors” were thus identified as the ones whose binding to the target polymerase was prevented by known anti-NS5B. The corresponding colonies didn't show any expression of the selection or reporter gene. (c) Characterization of NS5BΔ21 “3D-sensors” in a spot test. Here were represented 2 selected yeast colonies: one carrying the ER and its specific peptide called No 30-2 isolated previously and used as a control, the other carrying the NS5BΔ21 and its specific peptide called N21C272. Both clones were spotted on selective medium lacking histidine, leucine and tryptophane, supplemented or not with polymerase ligands and overlayed with an X-Gal staining The NS5BΔ21+N21C272 clone grew on selective medium in the absence of any NS5B ligand and stained positive for LacZ. […]

native NS5BΔ21 = molecular target: T5, native NS5BΔ21 (Hepatitis C virus genotype 1b, UniProt P26662); test: 3D-Screen-NS5B platform, luciferase reporter, Hela cells, native NS5BΔ21; format: cell-based, HCV genotype 1b; settings: HeLa, 24 hours; for inhibition at 10 µM: 10 uM final concentration, 3D-sensor N21C272, versus DMSO
T5 construct: expressed in transfected cells; host or cells: Hela cells, plasmid pVVS478
Experimental: Transfections were performed for 2 hours in 100 mm dishes in 2 to 4 million cells with 5 to 20 ug of total DNA complexed to jetPEI (PolyPLus transfection, Illkirch, France) with a N/P ratio of 8 The optimal ratio between the plasmids encoding for the luciferase reporter, the target and the selected 3Dsensor was: 3 ug/1 ug/0.5 ug. Cells were dissociated and 25000 cells per well were seeded in 96 well culture treated plates (BD Biosciences, Erembodegem, Belgium).
Compound library's plates were thawed at room temperature. Drugs were handled by a Genesis workstation (Tecan, Lyon, France) and added to the cells at a 5 uM (in 0.5% DMSO) final concentration. Screening was performed by runs of twenty plates. Hits were identified by measurement of the luciferase activity.
Cell culture supernatant was discarded and 100 ul of Lysis buffer were added to each well. Following […] of vigorous shaking, the lysate was transferred to white opaque 96 well-plates and 100 ul of Luciferin buffer were added. Chemi-luminescence measurement was performed immediately using a Microlumat LB96 luminometer (Berthold, Thoiry, France) with 1 or 10 sec integration time.
Selected hits were synthesized and tested at concentrations varying between 0.01 uM and 100 uM final concentration so as to determine their IC50 on 3 independent experiments.
3D-sensors confirmed in yeast were further investigated in human cells. Among the reasons of choosing Hela cells figured their wide use, easiness of manipulation and capacity of replicating subgenomic HCV replicons (Zhu et al., 2003; Kato et al., 2005).
To validate whether drug's action on our system was stokiometric or not, Hela cells were transiently transfected with three expression plasmids encoding the reporter gene luciferase, the target protein and the conformation sensitive peptide N21C272. After incubation with increasing amounts of reference drugs cVVS-023476 or cVVS-023477, luciferase expression was measured.

NS5BΔ21 = molecular target: T6, NS5BΔ21 (Hepatitis C virus genotype 1b, UniProt P26662); format: cell-based, HCV genotype 1b; settings: selective medium lacking histidine, leucine and tryptophane, supplemented with ligand, X-Gal overlay
T6 construct: lexA/truncated HCV polymerase lacking the C-terminal 21 amino-acids fusion protein as a bait; expressed in transfected cells; host or cells: Saccharomyces cerevisiae L40, plasmid pVVS468
Experimental: Yeast cells carrying the bait (NS5BΔ21-LexA) were transformed with the prey represented by a library of random peptides (in frame with the viral VP16 activation domain). […] The interacting peptides were then tested in presence of ligands known to induce conformational changes in the bait NS5B.
The naïve yeast was transformed with the pVVS468 (NS5BΔ21 fused to LexA) according to the Lithium Acetate transformation protocol (Schiestl et al, 1989). […] Resulting double transformants were spread on SD Agar medium lacking Tryptophan and Leucine, and incubated for 48 hours at 30° C. Colonies were then scraped and mixed. 1/500th of the suspension obtained was plated on SD Agar medium lacking Tryptophan, Leucine and Histidine to identify HIS3 reporter's activation. After 3 to 5 days of growth, an X-Gal overlay was performed to identify LacZ activation. An X-Gal solution was mixed with an equal volume of 1% agarose cooled to 50° C. then poured slowly over yeast colonies on the surface of agar plates. The individual clones that stained blue were picked up to be grown overnight in deep wells in order to be further analyzed.
Yeast colonies containing a peptide interacting with the bait were grown overnight in 96-well deepwells in trp-leu-liquid medium. They were then spotted using a plugger either on trp-leu-his-or trp-leu-solid medium supplemented with different concentrations of specific or non specific drugs or an equivalent amount of solvent (DMSO). […] Result was confirmed at least 3 times.
Yeast two-hybrid experiments were carried in the L40 strain (ATCC, Molsheim, France) transformed with a lexA/truncated HCV polymerase lacking the C-terminal 21 amino-acids fusion protein as a bait and the VVS001 peptide library as a prey. […] Conformation sensitive peptides or “3D-sensors” were then identified by addition to the selected individual yeast colonies of cVVS-023477 or cVVS-023476, two anti-NS5B drugs known to induce conformational changes in the target polymerase (FIG. 1b).

[5] = molecular target: single chain NS4A-NS3 full length R109K mutant fused to Gal4 DBD (yeast; hepatitis C virus genotype 1b), P26662; test: cell-based or functional assay
[6] = molecular target: single chain NS4A-NS3 full length T54A mutant fused to Gal4 DBD (yeast; hepatitis C virus genotype 1b), P26662; test: cell-based or functional assay
[7] = molecular target: single chain NS4A-NS3 full length D168V mutant fused to Gal4 DBD (yeast; hepatitis C virus genotype 1b), P26662; test: cell-based or functional assay
[8] = molecular target: single chain NS4A-NS3 full length protein (native) fused to the yeast Gal4 DBD (pVVS772) (yeast; hepatitis C virus genotype 1b), P26662; test: cell-based or functional assay
[9] = molecular target: single chain NS4A-NS3 full length A156S mutant fused to Gal4 DBD (yeast; hepatitis C virus genotype 1b), P26662; test: cell-based or functional assay
[10] = molecular target: single chain NS4A-NS3 full length A156V mutant fused to Gal4 DBD (pVVS783) (yeast; hepatitis C virus genotype 1b), P26662; test: cell-based or functional assay
[11] = molecular target: single chain NS4A-NS3 full length A156T mutant fused to Gal4 DBD (yeast; hepatitis C virus genotype 1b), P26662; test: cell-based or functional assay
[12] = molecular target: NS5BΔ21 L30S mutant fused to Gal4 DBD (pVVS474) (yeast; hepatitis C virus genotype 1b), P26662; test: cell-based or functional assay
[13] = molecular target: NS5BΔ21 L30R mutant fused to Gal4 DBD (pVVS475) (yeast; hepatitis C virus genotype 1b), P26662; test: cell-based or functional assay
[14] = Huh7, VF-9A11, listed as cVVS-23591

VFII-N4: NS3 full length 3D-sensor peptide VNAWAWGW (SEQ ID No 65) (NS3 full length peptide sensor VFII-N4)
sensitivity of the 3D-sensor to Telaprevir and Ciluprevir [1]: as sensitive as the 3D-Sensor VF-9A11

CCC[C@H](NC(=O)[C@@H]1[C@H]2CCC[C@H]2CN1C(=O)[C@@H](NC(=O)[C@@H](NC(=O)c1cnccn1)C1CCCCC1)C(C)(C)C)C(=O)C(=O)NC1CC1 [cVVS-023518, 2-(2-{2-Cyclohexyl-2-[(pyrazine-2-carbonyl)-amino]-acetylamino}-3,3-dimethyl-butyryl)-octahydro-cyclopenta[c]pyrrole-1-carboxylic acid (1-cyclopropylaminooxalyl-butyl)-amide]
inhibition at 2 µM [2]: 60%
inhibition at 2 µM (native NS4A-NS3 protease): 90%

COc1ccc2c(O[C@@H]3C[C@H]4C(=O)N[C@]5(C(=O)O)C[C@H]5/C=C\CCCCC[C@H](NC(=O)OC5CCCC5)C(=O)N4C3)cc(-c3csc(NC(C)C)n3)nc2c1 [cVVS-023951, (1S,4R,6S,7Z,14S,18R)-14-cyclopentyloxycarbonylamino-18-[2-(2-isopropylamino-thiazol-4-yl)-7-methoxyquinolin-4-yloxy]-2,15-dioxo-3,16-diazatricyclo[14.3.0.04.6]nonadec-7-ene-4-carboxylic acid]
activity on the protease (protease): low nanomolar range
resistance profile: sensitivity of the platform to the compound's inhibition ([3]; Huh7, VF-9A11): high resistance
resistance profile: sensitivity of the platform to the compound's inhibition [3, 14]: resistance in the same range as what was previously reported
resistance profile: sensitivity of the platform to the compound's inhibition ([4]; Huh7, VF-9A11): high resistance
resistance profile: sensitivity of the platform to the compound's inhibition [4, 14]: resistance in the same range as what was previously reported
resistance profile: sensitivity of the platform to the compound's inhibition ([1]; native, Huh7, VF-9A11): active

C[C@]12CC[C@@H]3c4ccc(O)cc4CC[C@H]3[C@@H]1CC[C@@H]2O [Estradiol]
sensitivity of the control clone (ER + 3D sensor No 30.2 interaction) to ligand (ER): active

O=C(O)P(=O)(O)O [Foscarnet]
inhibition at 10 µM (native NS5BΔ21): 11.7%
growth on selective medium and LacZ staining of the NS5BΔ21+N21C272 yeast clone (NS5BΔ21): had no effect; also recorded: didn't show any effect

O=C(O)CP(=O)(O)O [Phosphonoacetic acid]
inhibition at 10 µM (native NS5BΔ21): -2.2%
growth on selective medium and LacZ staining of the NS5BΔ21+N21C272 yeast clone (NS5BΔ21): had no effect
growth on selective medium and LacZ staining of the NS5BΔ21+N21C272 yeast clone (NS5BΔ21; listed as PAA): didn't show any effect

NC(=O)c1ncn([C@@H]2O[C@H](CO)[C@@H](O)[C@H]2O)n1 [Ribavirin]
inhibition at 75 µM (native NS5BΔ21; 75 uM final concentration, 3D-sensor N21C272): 8.7%

B1: 3D-sensor VF-9A11 fused to the VP16 activation domain (peptide)
chain: GTQKEAVIYPCYVPW
modifications: not checked
luciferase signal over background [5]: > 3
luciferase signal over background [6]: > 3
luciferase signal over background [7]: > 3
luciferase signal over background [8]: > 3
luciferase signal over background [9]: > 3
luciferase signal over background [10]: > 3
luciferase signal over background [11]: > 3

B2: 3D-sensor N21C272 fused to the VP16 activation domain (peptide)
chain: DGCARCVASVQLYGD
modifications: not checked
luciferase signal [12]: 7640 RLU
luciferase signal [13]: 3100 RLU

Source: US20110251085A1, “IN VITRO METHOD TO DETERMINE WHETHER A DRUG CANDIDATE ACTIVE AGAINST A TARGET PROTEIN IS ACTIVE AGAINST A VARIANT OF SAID PROTEIN” (VIVALIS, priority 2008, published 2011)
